Reference: ChEMBL document CHEMBL4842375, “Discovery of a Potent Glutathione Peroxidase 4 Inhibitor as a Selective Ferroptosis Inducer” (J Med Chem, 2021)
The source made the active and inactive calls. The rule behind the calls is not given here.

Experiments:
[1] = molecular target: T1, Phospholipid hydroperoxide glutathione peroxidase GPX4 (Homo sapiens) (UniProt P36969); assay: Inhibition of GPX4 in mouse 4T1 cells assessed as decrease in intracellular GPX4 activity at 5 uM after 6 hrs; type: cell-based
T1 sequence (whole entry): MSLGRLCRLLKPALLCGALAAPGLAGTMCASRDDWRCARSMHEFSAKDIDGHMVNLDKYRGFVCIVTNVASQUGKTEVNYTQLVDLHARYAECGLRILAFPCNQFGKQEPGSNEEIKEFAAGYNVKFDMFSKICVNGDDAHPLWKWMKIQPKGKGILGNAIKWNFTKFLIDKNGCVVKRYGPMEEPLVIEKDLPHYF

[2] = test system: 4T1; assay: Cytotoxicity against mouse 4T1 cells assessed as reduction in cell viability incubated for 48 hrs by MTT assay; type: functional, cell-based; details: 4T1, 48 h
[3] = test system: MCF7; assay: Cytotoxicity against human MCF7 cells assessed as reduction in cell viability incubated for 48 hrs by MTT assay; type: functional, cell-based; details: MCF7, 48 h
[4] = test system: HT-1080; assay: Cytotoxicity against human HT-1080 cells assessed as reduction in cell viability incubated for 48 hrs by MTT assay; type: functional, cell-based; details: HT-1080, 48 h
[5] = test system: HT-1080; assay: Cytotoxicity against human HT-1080 cells assessed as reduction in cell viability incubated for 48 hrs in presence of Fer-1 by MTT assay; type: functional, cell-based; details: HT-1080, 48 h
[6] = Selectivity index, ratio of IC50 for cytotoxicity against human HT-1080 cells in presence of Fer-1 to IC50 for cytotoxicity against human HT-1080 cells; type: functional
[7] = test system: 4T1; assay: Induction of ferroptosis in mouse 4T1 cells assessed as reversal of cytotoxicity after 48 hrs in presence of NAC by MTT assay; type: functional, cell-based
[8] = test system: 4T1; assay: Induction of ferroptosis in mouse 4T1 cells assessed as reversal of cytotoxicity after 48 hrs in presence of glutathione by MTT assay; type: functional, cell-based
[9] = test system: 4T1; assay: Induction of ferroptosis in mouse 4T1 cells assessed as reduction in GSH levels at 5 uM; type: functional, cell-based
[10] = Stability of compound in glutathione after 12 hrs by HPLC analysis; type: physicochemical
[11] = test system: 4T1; assay: Induction of LPO accumulation in mouse 4T1 cells assessed as increase in MDA level at 2.5 uM incubated for 6 hrs; type: functional, cell-based
[12] = test system: 4T1; assay: Induction of LPO accumulation in mouse 4T1 cells at 2.5 uM incubated for 6 hrs by C11-BODIPY staining based confocal laser scanning microscopic analysis; type: functional, cell-based
[13] = test system: 4T1; assay: Induction of LPO accumulation in mouse 4T1 cells at 2.5 uM incubated for 6 hrs in presence of Fer-1 by C11-BODIPY staining based confocal laser scanning microscopic analysis; type: functional, cell-based
[14] = test system: 4T1; assay: Induction of LPO accumulation in mouse 4T1 cells at 2.5 uM incubated for 6 hrs by C11-BODIPY staining based flow cytometric analysis; type: functional, cell-based
[15] = test system: 4T1; assay: Induction of LPO accumulation in mouse 4T1 cells at 2.5 uM incubated for 6 hrs in presence of Fer-1 by C11-BODIPY staining based flow cytometric analysis; type: functional, cell-based
[16] = test system: 4T1; assay: Induction of intracellular ROS generation in mouse 4T1 cells at 2.5 uM incubated for 6 hrs by DCFH-DA staining based confocal laser scanning microscopic analysis; type: functional, cell-based
[17] = test system: 4T1; assay: Induction of intracellular ROS generation in mouse 4T1 cells at 2.5 uM incubated for 6 hrs in presence of Fer-1 by DCFH-DA staining based confocal laser scanning microscopic analysis; type: functional, cell-based
[18] = test system: 4T1; assay: Induction of intracellular ROS generation in mouse 4T1 cells at 2.5 uM incubated for 6 hrs by DCFH-DA staining based flow cytometric analysis; type: functional, cell-based
[19] = test system: 4T1; assay: Induction of intracellular ROS generation in mouse 4T1 cells at 2.5 uM incubated for 6 hrs in presence of Fer-1 by DCFH-DA staining based flow cytometric analysis; type: functional, cell-based
[20] = test system: 4T1; assay: Effect on intracellular GSH level in mouse 4T1 cells assessed as reduction in GSH level; type: functional, cell-based
[21] = test system: 4T1; assay: Induction of ferroptosis in mouse 4T1 cells assessed as ruptured mitochondria at 5 uM incubated for 6 hrs by TEM analysis; type: functional
[22] = test system: 4T1; assay: Induction of ferroptosis in mouse 4T1 cells assessed as reduction in mitochondrial cristae at 5 uM incubated for 6 hrs by TEM analysis; type: functional, cell-based
[23] = test system: 4T1; assay: Induction of ferroptosis in mouse 4T1 cells assessed as increase in mitochondrial membrane density at 5 uM incubated for 6 hrs by TEM analysis; type: functional, cell-based
[24] = test system: 4T1; assay: Antitumor activity against mouse 4T1 cells xenografted in BALB/c mouse assessed as tumor growth inhibition at 15 mg/kg, iv administered every two days for total 5 times and monitered every two days by electronic caliper method; type: functional; details: 4T1, iv, 48 h, read-out: TGI
[25] = test system: 4T1; assay: Antitumor activity against mouse 4T1 cells xenografted in BALB/c mouse assessed as tumor growth inhibition at 30 mg/kg, iv administered every two days for total 5 times and monitered every two days by electronic caliper method; type: functional; details: 4T1, iv, 48 h, read-out: TGI
[26] = test system: 4T1; assay: Antitumor activity against mouse 4T1 cells xenografted in iv dosed BALB/c mouse assessed as tumor growth inhibition administered every two days for total 5 times and monitered every two days by electronic caliper method; type: functional, organism-based; details: dose 15-30 mg/kg
[27] = Toxicity in BALB/C mouse xenografted with mouse 4T1 cells assessed as change in body weight at 15 to 30 mg/kg, iv administered every two days for total 5 times and monitered every two days; type: organism-based; details: in vivo, dose 15-30 mg/kg
[28] = Toxicity in BALB/C mouse xenografted with mouse 4T1 cells assessed as change in biochemical indexes at 15 to 30 mg/kg, iv administered every two days for total 5 times and monitered every two days; type: organism-based; details: in vivo, dose 15-30 mg/kg
[29] = Toxicity in BALB/C mouse xenografted with mouse 4T1 cells assessed as change in morphology of tissues and cells at 15 to 30 mg/kg, iv administered every two days for total 5 times and monitered every two days; type: organism-based; details: in vivo, dose 15-30 mg/kg

inhibition [1]: 11.8%
Stabilty [10]: Stable
Structure (SMILES): O=C(NCCc1ccccc1)C(c1csc2ccccc12)N(C(=O)CCl)c1ccc(-c2cnco2)cc1 (centres undefined)
IC50 [2]: 780 nM
IC50 [3]: 6900 nM
IC50 [4]: 150 nM
IC50 [5]: 4730 nM
Ratio IC50 [6]: 31.5
Activity [7]: Active
Activity [8]: Active
Activity [9]: Active
Activity [11]: Active
Activity [12]: Active
Activity [13]: inactive
Activity [14]: Active
Activity [15]: inactive
Activity [16]: Active
Activity [17]: inactive
Activity [18]: Active
Activity [19]: inactive
Activity [20]: inactive
Activity [21]: Active
Activity [22]: Active
Activity [23]: Active
inhibition in vivo at 15 mg/kg [24]: 33.2%
inhibition in vivo at 30 mg/kg [25]: 55.1%
Activity [26]: Dose-Dependent Effect
Activity [27]: Non-Toxic
Activity [28]: Non-Toxic
Activity [29]: Non-Toxic
